The values below come from US9376418B2, “Substituted pyridine spleen tyrosine kinase (SYK) inhibitors” (Merck Sharp & Dohme Corp., priority 2012, dated 2016).

In the first experiment the target is T1, recombinant human GST-SYK (Homo sapiens, UniProt P43405).
T1 construct: purchased Carna Biosciences 08-176
Briefly: Homogeneous Time-Resolved Fluorescence (HTRF) assay for the recombinant human Syk enzyme. Format: biochemical. Particulars: HTRF assay, recombinant human GST-SYK; IC50 given as class symbols; read-out: rhSYK Activity. In a few lines:
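Enzyme […], pH 7.5 Tris/tween/DTT buffer; 10 min preincubation with compound, RT. Start: 250 nM biotin-peptide, 25 μM ATP, 5 mM Mg; 45′ RT. Stop/detect: 40 mM EDTA, Eu-anti-pTyr, SA-APC; read 30 min later.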
Consider `Cc1cc(Nc2nccc(C(F)(F)F)n2)cc(-c2ccc(N[C@@H](CCS(C)(=O)=O)C(=O)O)nc2)c1` [Example 7.74, (2S)-4-(methylsulfonyl)-2-{[5-(3-methyl-5-{[4-(trifluoromethyl)pyrimidin-2-yl]amino}phenyl)pyridin-2-yl]amino}butanoic acid], for which the IC50 was below 0.1 µM.

In the case of `Cc1cc(Nc2ncc(F)c(C3CC3)n2)cc(-c2ccc(NC(C)(C)C(=O)O)nc2)c1` [Example 7.159, N-(5-{3-[(4-cyclopropyl-5-fluoropyrimidin-2-yl)amino]-5-methylphenyl}pyridin-2-yl)-2-methylalanine], the IC50 is below 0.1 µM.

Turning to `COC(=O)CC(=O)Nc1ccc(-c2cc(C)cc(Nc3nccc(C(F)(F)F)n3)c2)cn1` [Example 8.3, methyl 3-{[5-(3-methyl-5-{[4-(trifluoromethyl)pyrimidin-2-yl]amino}phenyl)pyridin-2-yl]amino}-3-oxopropanoate], the IC50 was below 0.1 µM.

As for `Cc1cc(Nc2nccc(C(F)(F)F)n2)cc(-c2ccnc(C(C)(O)CO)c2)c1` (stereo not drawn) [Example 9.64, 2-[4-(3-methyl-5-{[4-(trifluoromethyl)pyrimidin-2-yl]amino}phenyl)pyridine-2-yl]propane-1,2-diol], the IC50 was below 0.1 µM.

In the case of `Cc1cc(Nc2nccc(C(F)(F)F)n2)cc(-c2ccnc(N3CCCC4(CCOC4=O)C3)c2)c1` (stereo not drawn) [Example 15.30, 7-[4-(3-methyl-5-{[4-(trifluoromethyl)pyrimidin-2-yl]amino}phenyl)pyridin-2-yl]-2-oxa-7-azaspiro[4.5]decan-1-one], the IC50 is below 0.1 µM.

As to `Cc1cc(Nc2nccc(C(F)(F)F)n2)cc(-c2ccc(C(=O)N3CCN(C)C(=O)C3)nc2)c1` [Example 16.20, 1-methyl-4-{[5-(3-methyl-5-{[4-(trifluoromethyl)pyrimidin-2-yl]amino}phenyl)pyridin-2-yl]carbonyl}piperazin-2-one], the IC50 was below 0.1 µM.

With `Cc1cc(Nc2nccc(C(F)(F)F)n2)cc(-c2ccc(N(C)CCO)nc2)c1` [Example 7.30, 2-{methyl[5-(3-methyl-5-{[4-(trifluoromethyl)pyrimidin-2-yl]amino}phenyl)pyridin-2-yl]amino}ethanol], the IC50 is below 0.1 µM.

Consider `Cc1cc(Nc2nccc(C(F)(F)F)n2)cc(-c2cncc(C(C)(O)CO)c2)c1` (stereo not drawn) [Example 9.68, 2-[5-(3-methyl-5-{[4-(trifluoromethyl)pyrimidin-2-yl]amino}phenyl)pyridin-3-yl]propane-1,2-diol], for which the IC50 was below 0.1 µM.

As for `Cc1cc(Nc2nccc(C(F)(F)F)n2)cc(-c2cncc(NCCO)c2)c1` [Example 15.22, 2-{[5-(3-Methyl-5-{[4-(trifluoromethyl)pyrimidin-2-yl]amino}phenyl)pyridin-3-yl]amino}ethanol], the IC50 was below 0.1 µM.

In the case of `Cc1cc(Nc2nccc(C(F)(F)F)n2)cc(-c2ccc(C(=O)N3CCNC(=O)C3C)nc2)c1` (stereo not drawn) [Example 12.5, 3-methyl-4-{[5-(3-methyl-5-{[4-(trifluoromethyl)pyrimidin-2-yl]amino}phenyl)pyridin-2-yl]carbonyl}piperazin-2-one], the IC50 is below 0.1 µM.

In the case of `Cc1cc(Nc2nccc(C(F)(F)F)n2)cc(-c2ccc(NC(C)(C)CO)nc2)c1` [Example 7.35, 2-methyl-2-{[5-(3-methyl-5-{[4-(trifluoromethyl)pyrimidin-2-yl]amino}phenyl)pyridin-2-yl]amino}propan-1-ol], the IC50 lay within 0.1 to 1 µM.

With `Cc1cc(Nc2nccc(C(F)(F)F)n2)cc(-c2ccc(NCc3cnn(C)c3)nc2)c1` [Example 7.20, N-[3-methyl-5-(6-{[(1-methyl-1H-pyrazol-4-yl)methyl]amino}pyridin-3-yl)phenyl]-4-(trifluoromethyl)pyrimidin-2-amine], the IC50 lay within 0.1 to 1 µM.

Turning to `Cc1cc(Nc2nccc(C(F)(F)F)n2)cc(-c2ccc(N3CCCC3C(N)=O)nc2)c1` (racemic) [Example 7.38, 1-[5-(3-methyl-5-{[4-(trifluoromethyl)pyrimidin-2-yl]amino}phenyl)pyridin-2-yl]prolinamide], the IC50 was below 0.1 µM.

For the compound `Cc1cc(Nc2nccc(C(F)(F)F)n2)cc(-c2ccc(C(=O)NC(C3CC3)C3CC3)nc2)c1` [Example 16.46, N-(dicyclopropylmethyl)-5-(3-methyl-5-{[4-(trifluoromethyl)pyrimidin-2-yl]amino}phenyl)pyridine-2-carboxamide], the IC50 was 0.1 to 1 µM.

`CNCc1ccc(-c2cc(C)cc(Nc3nccc(C(F)(F)F)n3)c2)cn1` [Example 2.49, N-(3-methyl-5-{6-[(methylamino)methyl]pyridin-3-yl}phenyl)-4-(trifluoromethyl)pyrimidin-2-amine]: the IC50 is below 0.1 µM.

In the case of `CCCOC1CCCN(c2ccc(-c3cc(C)cc(Nc4nccc(C(F)(F)F)n4)c3)cn2)C1` (stereo not drawn) [Example 7.63, N-{3-methyl-5-[6-(3-propoxypiperidin-1-yl)pyridin-3-yl]phenyl}-4-(trifluoromethyl)pyrimidin-2-amine], the IC50 fell in the range of 0.1 to 1 µM.

Turning to `Cc1cc(Nc2nccc(C(F)(F)F)n2)cc(-c2ccc(C(C)O)nc2)c1` (stereo not drawn) [Example 2.138, 1-[5-(3-Methyl-5-{[4-(trifluoromethyl)pyrimidin-2-yl]amino}phenyl)pyridin-2-yl]ethanol], the IC50 was below 0.1 µM.

Take `CNC(=O)CN(C)C(=O)c1ccc(-c2cc(C)cc(Nc3nccc(C(F)(F)F)n3)c2)cn1` [Example 16.61, N-methyl-N-[2-(methylamino)-2-oxoethyl]-5-(3-methyl-5-{[4-(trifluoromethyl)pyrimidin-2-yl]amino}phenyl)pyridine-2-carboxamide]: the IC50 is below 0.1 µM.

Take `Cc1cc(Nc2nccc(C(F)(F)F)n2)cc(-c2ccc(NCC(=O)N(C)C)nc2)c1` [Example 7.66, N,N-dimethyl-N~2~-[5-(3-methyl-5-{[4-(trifluoromethyl)pyrimidin-2-yl]amino}phenyl)pyridin-2-yl]glycinamide]: the IC50 is below 0.1 µM.

In the case of `Cc1cc(Nc2nccc(C(F)(F)F)n2)cc(-c2ccc(N3CCCC4(CCCNC4=O)C3)nc2)c1` (stereo not drawn) [Example 7.9, 8-[5-(3-methyl-5-{[4-(trifluoromethyl)pyrimidin-2-yl]amino}phenyl)pyridin-2-yl]-2,8-diazaspiro[5.5]undecan-1-one], the IC50 was 0.1 to 1 µM.

Consider `Cc1cc(Nc2nccc(C(F)(F)F)n2)cc(-c2ccc(NC(C)(c3nnn[nH]3)C(C)(C)C)nc2)c1` (stereo not drawn) [Example 18.9, N-[3-methyl-5-(6-{[1,2,2-trimethyl-1-(1H-tetrazol-5-yl)propyl]amino}pyridin-3-yl)phenyl]-4-(trifluoromethyl)pyrimidin-2-amine], for which the IC50 was below 0.1 µM.

In the case of `Cc1cc(Nc2nccc(C(F)(F)F)n2)cc(-c2ccc(N3CCC[C@H]3C(=O)NCC(=O)O)nc2)c1` [Example 7.83, 1-[5-(3-methyl-5-{[4-(trifluoromethyl)pyrimidin-2-yl]amino}phenyl)pyridin-2-yl]-L-prolylglycine], the IC50 is below 0.1 µM.

With `CCOC(=O)CCc1ccc(-c2cc(C)cc(Nc3nccc(C4CC4)n3)c2)nc1` [Example 2.37, ethyl 3-(6-{3-[(4-cyclopropylpyrimidin-2-yl)amino]-5-methylphenyl}pyridin-3-yl)propanoate], the IC50 was 0.1 to 1 µM.

In the case of `Cc1cc(Nc2nccc(C(F)(F)F)n2)cc(-c2cnc(NC(C)(C)C(=O)O)c(C(F)(F)F)c2)c1` [Example 7.123, 2-methyl-N-[5-(3-methyl-5-{[4-(trifluoromethyl)pyrimidin-2-yl]amino}phenyl)-3-(trifluoromethyl)pyridin-2-yl]alanine], the IC50 was below 0.1 µM.

In the case of `CCC(CO)Nc1ccc(-c2cc(C)cc(Nc3nccc(C(F)(F)F)n3)c2)cn1` (stereo not drawn) [Example 7.23, 2-{[5-(3-methyl-5-{[4-(trifluoromethyl)pyrimidin-2-yl]amino}phenyl)pyridin-2-yl]amino}butan-1-ol], the IC50 is below 0.1 µM.

On to `Cc1cc(Nc2nccc(C(F)(F)F)n2)cc(-c2ccc(N3CCC[C@H]3C(=O)O)nc2)c1` [Example 7.84, 1-[5-(3-methyl-5-{[4-(trifluoromethyl)pyrimidin-2-yl]amino}phenyl)pyridin-2-yl]-L-proline], for which the IC50 is below 0.1 µM.

As for `Cc1cc(Nc2nccc(C(F)(F)F)n2)cc(-c2ccc(N[C@H]3CCC(=O)NC3)nc2)c1` [Example 7.52, (5S)-5-{[5-(3-methyl-5-{[4-(trifluoromethyl)pyrimidin-2-yl]amino}phenyl)pyridin-2-yl]amino}piperidin-2-one], the IC50 is below 0.1 µM.

As for `O=C(O)[C@@H]1CCN1c1ccc(-c2cc(F)cc(Nc3ncc(F)c(C4CC4)n3)c2)cn1` [Example 7.160, (2S)-1-(5-{3-[(4-cyclopropyl-5-fluoropyrimidin-2-yl)amino]-5-fluorophenyl}pyridin-2-yl)azetidine-2-carboxylic acid], the IC50 is below 0.1 µM.

Take `Cc1cc(Nc2nccc(C(F)(F)F)n2)cc(-c2ccc(NCC(=O)O)nc2)c1` [Example 7.87, N-[5-(3-methyl-5-{[4-(trifluoromethyl)pyrimidin-2-yl]amino}phenyl)pyridin-2-yl]glycine]: the IC50 was below 0.1 µM.

For `CNC(=O)C1CCCN1c1ccc(-c2cc(C)cc(Nc3nccc(C(F)(F)F)n3)c2)cn1` (stereo not drawn) [Example 7.65, N-methyl-1-[5-(3-methyl-5-{[4-(trifluoromethyl)pyrimidin-2-yl]amino}phenyl)pyridin-2-yl)prolinamide], the IC50 was in the range of 0.1 to 1 µM.

`Cc1cc(Nc2nccc(C(F)(F)F)n2)cc(-c2ccc(C(=O)NCc3cncn3C)nc2)c1` [Example 16.15, N-[(1-methyl-1H-imidazol-5-yl)methyl]-5-(3-methyl-5-{[4-(trifluoromethyl)pyrimidin-2-yl]amino}phenyl)pyridine-2-carboxamide]: the IC50 lay in the range of 0.1 to 1 µM.

For `CCOC(=O)CCc1ccc(-c2cc(C)cc(Nc3nccc(C4CC4)n3)c2)cn1` [Example 2.103, ethyl 3-(5-{3-[(4-cyclopropylpyrimidin-2-yl)amino]-5-methylphenyl}pyridin-2-yl)propanoate], the IC50 was below 0.1 µM.

Still in this experiment, the particulars now being: recombinant GST-hSYK, 25 μM ATP, HTRF; read-out: IC50 (inhibition of human Syk activity).
As for `CCCOC1CCCN(c2ccc(-c3cc(C)cc(Nc4nccc(C(F)(F)F)n4)c3)cn2)C1` (stereo not drawn) [Example 7.63, N-{3-methyl-5-[6-(3-propoxypiperidin-1-yl)pyridin-3-yl]phenyl}-4-(trifluoromethyl)pyrimidin-2-amine], the IC50 was found to be 0.7 µM.
